Laboratory results reported in PubChem BioAssay (NCI).
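Protocol summary: plate cells (96-well), add compound at 5 concentrations, incubate 48 h, interpolate endpoints linearly. At the TGI there is no net growth.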

What was measured:
Assay in all cases: inhibition of tumour cell growth, NCI panel, 48 h
[1] = test system: NCI-H460 lung
[2] = test system: MDA-MB-435
[3] = test system: M14 melanoma
[4] = test system: SK-MEL-2 melanoma
[5] = test system: HL-60(TB) leukemia
[6] = test system: HCT-116 colon
[7] = test system: EKVX NSCLC
[8] = test system: KM12 colon
[9] = test system: RXF 393 renal
[10] = test system: SW-620 colon
[11] = test system: SN12C renal
[12] = test system: COLO 205 colon
[13] = test system: UO-31 renal
[14] = test system: MCF7 breast
[15] = test system: SNB-75 CNS
[16] = test system: OVCAR-4 ovarian
[17] = test system: IGROV1 ovarian
[18] = test system: SK-MEL-5 melanoma
[19] = test system: OVCAR-5 ovarian
[20] = test system: SF-295 CNS
[21] = test system: CCRF-CEM leukemia
[22] = test system: HCT-15 colon
[23] = test system: LOX IMVI melanoma
[24] = test system: TK-10 renal
[25] = test system: CAKI-1 renal
[26] = test system: OVCAR-3 ovarian
[27] = test system: MOLT-4 leukemia
[28] = test system: HOP-92 NSCLC
[29] = test system: NCI-H522 lung
[30] = test system: PC-3 prostate
[31] = test system: HT29 colon
[32] = test system: UACC-62 melanoma
[33] = test system: NCI/ADR-RES ovarian
[34] = test system: DU-145 prostate
[35] = test system: MDA-N
[36] = test system: HCC-2998 colon
[37] = test system: ACHN renal
[38] = test system: BT-549 breast
[39] = test system: SF-539 CNS
[40] = test system: SK-OV-3 ovarian
[41] = test system: A498 renal
[42] = test system: NCI-H23 lung
[43] = test system: HS 578T breast
[44] = test system: MDA-MB-231 breast
[45] = test system: 786-0 renal
[46] = test system: MALME-3M melanoma
[47] = test system: UACC-257 melanoma
[48] = test system: T-47D breast
[49] = test system: SNB-19 CNS
[50] = test system: U251 CNS
[51] = test system: A549 NSCLC
[52] = test system: RPMI-8226 leukemia
[53] = test system: K-562 leukemia
[54] = test system: SK-MEL-28 melanoma
[55] = test system: OVCAR-8 ovarian
[56] = test system: NCI-H226 lung
[57] = test system: HOP-62 NSCLC
[58] = test system: SF-268 CNS

Cc1cccc2c(NCCCN(C)C)c3c([N+](=O)[O-])ccc(C)c3nc12
TGI [1]: 141 nM
TGI [2]: 492 nM
TGI [3]: 297 nM
TGI [4]: 285 nM
TGI [5]: 1390 nM
TGI [6]: 821 nM
TGI [7]: 360 nM
TGI [8]: 3230 nM
TGI [9]: 190 nM
TGI [10]: 6000 nM
TGI [11]: 948 nM
TGI [12]: 218 nM
TGI [13]: 492 nM
TGI [14]: 173 nM
TGI [15]: 491 nM
TGI [16]: 554 nM
TGI [17]: 666 nM
TGI [18]: 251 nM
TGI [19]: 744 nM
TGI [20]: 451 nM
TGI [21]: > 100000 nM
TGI [22]: 592 nM
TGI [23]: 607 nM
TGI [24]: 709 nM
TGI [25]: 2610 nM
TGI [26]: 357 nM
TGI [27]: 1150 nM
TGI [28]: 416 nM
TGI [29]: 120 nM
TGI [30]: 259 nM
TGI [31]: 1390 nM
TGI [32]: 284 nM
TGI [33]: 3370 nM
TGI [34]: 651 nM
TGI [35]: 498 nM
TGI [36]: < 45.4 nM
TGI [37]: 332 nM
TGI [38]: 858 nM
TGI [39]: 1120 nM
TGI [40]: 982 nM
TGI [41]: 26.9 nM
TGI [42]: 160 nM
TGI [43]: 2960 nM
TGI [44]: 601 nM
TGI [45]: 573 nM
TGI [46]: 375 nM
TGI [47]: 400 nM
TGI [48]: 758 nM
TGI [49]: 2020 nM
TGI [50]: 741 nM
TGI [51]: 778 nM
TGI [52]: 3170 nM
TGI [53]: 3940 nM
TGI [54]: 5870 nM
TGI [55]: 1580 nM
TGI [56]: 458 nM
TGI [57]: 265 nM
TGI [58]: 1480 nM

c1ccc2c(c1)Oc1cccc3cccc-2c13
TGI [1]: > 100000 nM
TGI [2]: > 100000 nM
TGI [3]: > 100000 nM
TGI [4]: > 100000 nM
TGI [5]: > 100000 nM
TGI [6]: > 100000 nM
TGI [7]: > 100000 nM
TGI [8]: > 100000 nM
TGI [9]: > 100000 nM
TGI [10]: > 100000 nM
TGI [11]: > 100000 nM
TGI [12]: > 100000 nM
TGI [13]: > 100000 nM
TGI [14]: > 100000 nM
TGI [15]: > 100000 nM
TGI [16]: > 100000 nM
TGI [17]: > 100000 nM
TGI [18]: > 100000 nM
TGI [19]: > 100000 nM
TGI [20]: > 100000 nM
TGI [21]: > 100000 nM
TGI [22]: > 100000 nM
TGI [23]: > 100000 nM
TGI [24]: > 100000 nM
TGI [25]: > 100000 nM
TGI [26]: > 100000 nM
TGI [27]: > 100000 nM
TGI [28]: > 100000 nM
TGI [29]: > 100000 nM
TGI [30]: > 100000 nM
TGI [31]: > 100000 nM
TGI [32]: > 100000 nM
TGI [33]: > 100000 nM
TGI [34]: > 100000 nM
TGI [35]: > 100000 nM
TGI [36]: > 100000 nM
TGI [37]: > 100000 nM
TGI [38]: > 100000 nM
TGI [39]: > 100000 nM
TGI [40]: > 100000 nM
TGI [41]: > 100000 nM
TGI [42]: > 100000 nM
TGI [43]: > 100000 nM
TGI [44]: > 100000 nM
TGI [45]: > 100000 nM
TGI [46]: > 100000 nM
TGI [47]: > 100000 nM
TGI [48]: > 100000 nM
TGI [49]: > 100000 nM
TGI [50]: > 100000 nM
TGI [51]: > 100000 nM
TGI [52]: > 100000 nM
TGI [53]: > 100000 nM
TGI [54]: > 100000 nM
TGI [55]: > 100000 nM
TGI [56]: > 100000 nM
TGI [57]: > 100000 nM
TGI [58]: > 100000 nM
